Assay results reported in patent publication US20240409536A1, “COMPOUNDS AND METHODS FOR MODULATING SPLICING” (REMIX THERAPEUTICS INC., priority 2021, published 2024).

Experiments:
HTT mRNA = experiment: Gene panel canonical junction qPCR assay, HTT CJ mRNA decrease; assay type: cell-based, human; conditions: Homo sapiens, canonical junction qPCR, read-out: HTT IC50 (decrease in CJ mRNA levels)
Summary of the method: (§1)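 IC50 values describe loss of canonical-junction transcript, fitted by 4-parameter logistic to percent response derived from fixed ΔCt windows. Read-out: RT-qPCR on lysates of compound-treated K562 or A673 cells, probes overlapping the exon junction, ΔΔCt versus housekeeping gene and DMSO control.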

MYB mRNA [1] = experiment: Gene panel canonical junction qPCR assay, MYB CJ mRNA decrease; assay type: cell-based, human; conditions: Homo sapiens, canonical junction qPCR, read-out: MYB IC50 (decrease in CJ mRNA levels)
Summary of the method: as §1

MYB mRNA [2] = experiment: Splicing RT-qPCR assay, MYB canonical (CJ) and alternative (AJ) junction mRNA; assay type: cell-based; conditions: Homo sapiens, A673 or K562 cells, 24 hours; for IC50: decrease in canonical junction mRNA; for AC50: increase in alternative junction mRNA
Summary of the method: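 Splice switching was scored by qPCR detection of the new alternative-exon junction (AJ) alongside the canonical junction (CJ). Cell lines A673 or K562 received compound 24 h, top dose 10 uM final.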

SMILES | IC50 (HTT mRNA) | IC50 (MYB mRNA [1]) | IC50 (MYB mRNA [2]) | AC50 (MYB mRNA [2])
Cc1cn2cc(NC(=O)c3ccc(N4C[C@@H](C)N[C@@H](C)C4)c4ncc(N(C)C)nc34)cc(F)c2n1 [Compound 283] | 100 to 1000 nM | < 100 nM | < 100 nM | 100 to 1000 nM
CCOc1cnc2c(N3C[C@@H](C)N[C@@H](C)C3)ccc(C(=O)Nc3cc(F)c4nc(C)cn4c3)c2n1 [Compound 296] | 100 to 1000 nM | < 100 nM | < 100 nM | < 100 nM
Cc1cn2cc(NC(=O)c3ccc(N4C[C@@H](C)N[C@@H](C)C4)c4ncc(O)nc34)cc(F)c2n1 [Compound 275] | > 10000 nM | > 10000 nM | > 10000 nM | > 10000 nM
COc1nc(NC(=O)c2ccc(N3C[C@@H](C)N[C@@H](C)C3)c3nccnc23)cn2cc(C)nc12 [Compound 277] | 100 to 1000 nM | < 100 nM | < 100 nM | < 100 nM
Cc1cn2cc(NC(=O)c3ccc(N4CCNCC4)c4nccnc34)cc(F)c2n1 [Compound 111] | 1000 to 10000 nM | 100 to 1000 nM | 100 to 1000 nM | 100 to 1000 nM
Cc1cn2cc(NC(=O)c3ccc(N4CCN5CCOC[C@H]5C4)c4nccnc34)cc(F)c2n1 [Compound 256, (R)—N-(8-fluoro-2-methylimidazo[1,2-a]pyridin-6-yl)-8-(hexahydropyrazino[2,1-c][1,4]oxazin-8(1H)-yl)quinoxaline-5-carboxamide] | 1000 to 10000 nM | 1000 to 10000 nM | 1000 to 10000 nM | 1000 to 10000 nM
Cc1cn2c(C)c(NC(=O)c3ccc(N4C[C@@H](C)N[C@@H](C)C4)c4nccnc34)cc(F)c2n1 [Compound 285] | 1000 to 10000 nM | 100 to 1000 nM | 100 to 1000 nM | 1000 to 10000 nM
Cc1cn2cc(NC(=O)c3ccc(N4CCN5CCOC[C@@H]5C4)c4nccnc34)cc(F)c2n1 [Compound 255, (S)—N-(8-fluoro-2-methylimidazo[1,2-a]pyridin-6-yl)-8-(hexahydropyrazino[2,1-c][1,4]oxazin-8(1H)-yl)quinoxaline-5-carboxamide] | 100 to 1000 nM | 100 to 1000 nM | 100 to 1000 nM | 100 to 1000 nM
Cc1cn2cc(NC(=O)c3ccc(N4CCNCC4)c4ccnnc34)ncc2n1 [Compound 120] | > 10000 nM | 100 to 1000 nM | 100 to 1000 nM | 100 to 1000 nM
Cn1cc2ccc(NC(=O)c3ccc(N4CCNCC4)c4ccnnc34)cc2n1 [Compound 115] | > 10000 nM | > 10000 nM | > 10000 nM | > 10000 nM
Cc1cn2cc(NC(=O)c3ccc(C4=CCNCC4)c4nccnc34)cc(F)c2n1 [Compound 240, N-{8-fluoro-2-methylimidazo[1,2-a]pyridin-6-yl}-8-(1,2,3,6-tetrahydropyridin-4-yl)quinoxaline-5-carboxamide] | < 100 nM | < 100 nM | < 100 nM | 100 to 1000 nM
COc1cc2c(N3C[C@@H](C)N[C@@H](C)C3)ccc(C(=O)Nc3cc(F)c4nc(C)cn4c3)c2nn1 [Compound 273, 5-[(3R,5S)-3,5-dimethylpiperazin-1-yl]-N-{8-fluoro-2-methylimidazo[1,2-a]pyridin-6-yl}-3-methoxycinnoline-8-carboxamide] | 100 to 1000 nM | 100 to 1000 nM | 100 to 1000 nM | 100 to 1000 nM
Cc1cn2cc(NC(=O)c3ccc(N4CC[C@@H](N(C)C)C4)c4nccnc34)cc(F)c2n1 [Compound 242, 8-[(3R)-3-(dimethylamino)pyrrolidin-1-yl]-N-{8-fluoro-2-methylimidazo[1,2-a]pyridin-6-yl}quinoxaline-5-carboxamide] | > 10000 nM | 100 to 1000 nM | 100 to 1000 nM | 1000 to 10000 nM
Cc1cn2cc(NC(=O)c3ccc(N4C[C@@H](C5CC5)N[C@@H](C)C4)c4nccnc34)cc(F)c2n1 [Compound 267, 8-((3R,5S)-3-cyclopropyl-5-methylpiperazin-1-yl)-N-(8-fluoro-2-methylimidazo[1,2-a]pyridin-6-yl)quinoxaline-5-carboxamide] | > 10000 nM | 100 to 1000 nM | 100 to 1000 nM | 100 to 1000 nM
COc1nc(NC(=O)c2ccc(N3C[C@@H](C)N[C@@H](C)C3)c3nccnc23)cc2oc(C)nc12 [Compound 298] | > 10000 nM | 100 to 1000 nM | 100 to 1000 nM | 100 to 1000 nM
Cc1cn2cc(NC(=O)c3ccc(N4C[C@@H](C)N[C@@H](C)C4)c4ncc(Cl)nc34)cc(F)c2n1 [Compound 281] | > 10000 nM | 1000 to 10000 nM | 1000 to 10000 nM | 1000 to 10000 nM
Cc1cn2cc(NC(=O)c3ccc(N4CC[C@@H](N)C4)c4ccnnc34)cc(F)c2n1 [Compound 270] | 1000 to 10000 nM | 100 to 1000 nM | 100 to 1000 nM | < 100 nM
Cc1cn2cc(NC(=O)c3ccc([C@H]4CCNC4)c4nccnc34)cc(F)c2n1 [Compound 246] | 1000 to 10000 nM | 100 to 1000 nM | 100 to 1000 nM | 100 to 1000 nM
Cc1cn2cc(NC(=O)c3ccc(N4CCC(NC5CC5)CC4)c4ccnnc34)cc(F)c2n1 [Compound 259, 5-[4-(cyclopropylamino)piperidin-1-yl]-N-{8-fluoro-2-methylimidazo[1,2-a]pyridin-6-yl} cinnoline-8-carboxamide] | 100 to 1000 nM | < 100 nM | < 100 nM | < 100 nM

Now from value to compound, other results behind:

IC50 (HTT mRNA) | IC50 (MYB mRNA [1]) | IC50 (MYB mRNA [2]) | SMILES | AC50 (MYB mRNA [2])
> 10000 nM | 100 to 1000 nM | 100 to 1000 nM | Cc1cn2cc(NC(=O)c3ccc(NC4CCNC4)c4nccnc34)cc(F)c2n1 (centres unmarked) [Compound 316] | 1000 to 10000 nM
> 10000 nM | > 10000 nM | > 10000 nM | COc1nc2c(F)cc(NC(=O)c3ccc(N4C[C@@H](C)N[C@@H](C)C4)c4nccnc34)cc2o1 [Compound 342] | > 10000 nM
1000 to 10000 nM | 100 to 1000 nM | 100 to 1000 nM | Cc1cn2cc(NC(=O)c3ccc(N4C[C@@H](C)N[C@@H](C)C4)c4cccnc34)cc(F)c2n1 [Compound 340] | 100 to 1000 nM
100 to 1000 nM | 100 to 1000 nM | 100 to 1000 nM | Cc1cn2nc(NC(=O)c3ccc(N4C[C@@H](C)N[C@@H](C)C4)c4nccnc34)cc2c(C)n1 [Compound 354] | 100 to 1000 nM
1000 to 10000 nM | 1000 to 10000 nM | 1000 to 10000 nM | Cc1cn2cc(NC(=O)c3ccc(N4CCN[C@@H](CF)C4)c4nccnc34)cc(F)c2n1 [Compound 367] | 1000 to 10000 nM
> 10000 nM | > 10000 nM | > 10000 nM | COc1cn2cc(NC(=O)c3ccc(N4C[C@@H](C)N[C@@H](C)C4)c4nccnc34)cc(F)c2n1 [Compound 357] | 1000 to 10000 nM
1000 to 10000 nM | < 100 nM | < 100 nM | Cc1cn2cc(NC(=O)c3ccc(N4CCNC(C)(CO)C4)c4nccnc34)cc(F)c2n1 (centres unmarked) [Compound 368] | < 100 nM
> 10000 nM | 100 to 1000 nM | 100 to 1000 nM | C[C@@H]1CN(c2ccc(C(=O)Nc3cc(F)c4nc(Cl)cn4c3)c3nccnc23)C[C@H](C)N1 [Compound 306] | 100 to 1000 nM
1000 to 10000 nM | 100 to 1000 nM | 100 to 1000 nM | Cc1cn2cc(NC(=O)c3ccc(N4C[C@@H](C)N[C@@H](C)C4)c4ncc(OC5CC5)nc34)cc(F)c2n1 [Compound 351] | 100 to 1000 nM
1000 to 10000 nM | 100 to 1000 nM | 100 to 1000 nM | Cc1cn2cc(NC(=O)c3ccc(N4C[C@@H](C)N[C@@H](C)C4)c4cncnc34)cc(F)c2n1 [Compound 302] | 100 to 1000 nM
1000 to 10000 nM | 100 to 1000 nM | 100 to 1000 nM | Cc1cn2cc(NC(=O)c3ccc(N4CCN[C@H](CF)C4)c4nccnc34)cc(F)c2n1 [Compound 366] | 100 to 1000 nM
1000 to 10000 nM | < 100 nM | < 100 nM | Cc1cn2cc(NC(=O)c3ccc(N4C[C@@H](C)N[C@H](C)C4)c4nccnc34)cc(F)c2n1 [Compound 312] | < 100 nM
1000 to 10000 nM | 100 to 1000 nM | 100 to 1000 nM | Cc1cn2cc(NC(=O)c3ccc(N4CCNC5(CCC5)C4)c4nccnc34)cc(F)c2n1 [Compound 363] | 100 to 1000 nM
> 10000 nM | 1000 to 10000 nM | 1000 to 10000 nM | C[C@@H]1CN(c2ccc(C(=O)Nc3cc(F)c4ncccc4c3)c3nccnc23)C[C@H](C)N1 [Compound 344] | > 10000 nM
1000 to 10000 nM | 100 to 1000 nM | 100 to 1000 nM | Cc1cn2cc(NC(=O)c3ccc(N4CCN[C@H](CO)C4)c4nccnc34)cc(F)c2n1 [Compound 362] | 100 to 1000 nM
1000 to 10000 nM | 100 to 1000 nM | 100 to 1000 nM | COc1nc(NC(=O)c2ccc(N3C[C@@H](C)N[C@@H](C)C3)c3nccnc23)cc2cn(C)nc12 [Compound 352] | 100 to 1000 nM
1000 to 10000 nM | 100 to 1000 nM | 100 to 1000 nM | Cc1cn2cc(NC(=O)c3ccc(N4CCC5(CCN5)C4)c4nccnc34)cc(F)c2n1 (centres unmarked) [Compound 339] | 1000 to 10000 nM
> 10000 nM | 100 to 1000 nM | 100 to 1000 nM | Cc1cn2cc(NC(=O)c3ccc(N4CC[C@@H](N)C4)c4nccnc34)cc(F)c2n1 [Compound 315] | 1000 to 10000 nM
1000 to 10000 nM | 100 to 1000 nM | 100 to 1000 nM | C[C@@H]1CN(c2ccc(C(=O)Nc3cc(F)c4nn(C)cc4c3)c3nccnc23)C[C@@H](C)N1 [Compound 335] | 100 to 1000 nM
